Results from patent US10794932B2, “Biosensor for the detection of a biological target, and method for manufacturing the same” (The Governing Council of The University of Toronto, priority 2016, dated 2020).

How the values were obtained:
TLR4 = assay: TLR multiplex sensor, EIS film resistance before/after exposure (Example 5), TLR4 sensor; assay type: binding; conditions: exposure 20 minutes
Description: (§1) For each multiplex TLR sensor, 5 separate gold electrodes were used for binding TLR 1 to 5. The 5 modified electrodes/sensors were exposed to the analyte solution and evaluated one by one using potentiostats and electrochemical cells.
(§2) The preparation of each TLR biosensor was evaluated using EIS. It is understood that cyclic voltammetry as well as electrochemical impedance microscopy can also be used for monitoring the modification. […] Ethanolamine was then applied to deactivate unreacted LPA. Due to dissociation of unspecific absorbed TLR, the Rct dropped slightly. Experimental curves were evaluated using a model to obtain the Rct values, which can be seen at FIG. 9. Measurements from at least triplicated samples prepared were used to obtain statistic information.
(§3) The TLR1 sensor was exposed to an E. coli K12 whole-cell buffer solution for 20 minutes. The sensor was then removed, washed thoroughly and characterized in the electrochemical cell measuring the Rct again. The difference in Rct before and after exposure is the response triggered by the target. The same protocol was carried out for all remaining TLRs (TLRs 2-5) to obtain one set of pattern for E. coli K12 (FIGS. 10b to 10e). Multiple sets were investigated for statistical relevance. […]

rmTLR4/MD-2 = biological target: T1, rmTLR4/MD-2 (Mus musculus, UniProt Q9JHF9+Q9QUK6); assay: Selectivity test, TLR4/MD-2 sensor, EIS; assay type: binding; conditions: 10 μM
T1 construct: purchased
T1 sequence (Q9QUK6 26-638 limits assumed): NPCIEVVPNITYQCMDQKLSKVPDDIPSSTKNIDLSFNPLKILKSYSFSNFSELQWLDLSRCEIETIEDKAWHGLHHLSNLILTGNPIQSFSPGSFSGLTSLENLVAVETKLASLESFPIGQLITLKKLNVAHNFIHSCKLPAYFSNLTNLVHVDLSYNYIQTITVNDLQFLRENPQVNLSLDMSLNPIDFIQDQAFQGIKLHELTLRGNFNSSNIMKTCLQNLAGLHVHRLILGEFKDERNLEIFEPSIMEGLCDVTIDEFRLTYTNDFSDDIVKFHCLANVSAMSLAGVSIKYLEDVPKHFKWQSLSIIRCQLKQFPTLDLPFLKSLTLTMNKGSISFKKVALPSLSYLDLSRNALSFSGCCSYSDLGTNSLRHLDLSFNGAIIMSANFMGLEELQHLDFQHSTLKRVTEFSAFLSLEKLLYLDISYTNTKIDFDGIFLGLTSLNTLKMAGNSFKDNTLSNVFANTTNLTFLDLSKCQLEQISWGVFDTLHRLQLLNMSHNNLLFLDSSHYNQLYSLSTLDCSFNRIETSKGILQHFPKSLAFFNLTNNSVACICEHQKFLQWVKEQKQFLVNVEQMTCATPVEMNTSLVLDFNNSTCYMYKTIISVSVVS
T1 sequence (Q9JHF9 19-160): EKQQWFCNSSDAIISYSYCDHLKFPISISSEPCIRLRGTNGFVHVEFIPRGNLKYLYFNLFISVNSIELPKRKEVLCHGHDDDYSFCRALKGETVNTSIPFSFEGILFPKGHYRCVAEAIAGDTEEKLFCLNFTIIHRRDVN

TLR1 = biological target: T2, TLR1 (Mus musculus, UniProt Q9EPQ1); assay: TLR multiplex sensor, EIS film resistance before/after exposure (Example 5), TLR1 sensor; assay type: binding; conditions: exposure 20 minutes
T2 sequence (Q9EPQ1 26-795): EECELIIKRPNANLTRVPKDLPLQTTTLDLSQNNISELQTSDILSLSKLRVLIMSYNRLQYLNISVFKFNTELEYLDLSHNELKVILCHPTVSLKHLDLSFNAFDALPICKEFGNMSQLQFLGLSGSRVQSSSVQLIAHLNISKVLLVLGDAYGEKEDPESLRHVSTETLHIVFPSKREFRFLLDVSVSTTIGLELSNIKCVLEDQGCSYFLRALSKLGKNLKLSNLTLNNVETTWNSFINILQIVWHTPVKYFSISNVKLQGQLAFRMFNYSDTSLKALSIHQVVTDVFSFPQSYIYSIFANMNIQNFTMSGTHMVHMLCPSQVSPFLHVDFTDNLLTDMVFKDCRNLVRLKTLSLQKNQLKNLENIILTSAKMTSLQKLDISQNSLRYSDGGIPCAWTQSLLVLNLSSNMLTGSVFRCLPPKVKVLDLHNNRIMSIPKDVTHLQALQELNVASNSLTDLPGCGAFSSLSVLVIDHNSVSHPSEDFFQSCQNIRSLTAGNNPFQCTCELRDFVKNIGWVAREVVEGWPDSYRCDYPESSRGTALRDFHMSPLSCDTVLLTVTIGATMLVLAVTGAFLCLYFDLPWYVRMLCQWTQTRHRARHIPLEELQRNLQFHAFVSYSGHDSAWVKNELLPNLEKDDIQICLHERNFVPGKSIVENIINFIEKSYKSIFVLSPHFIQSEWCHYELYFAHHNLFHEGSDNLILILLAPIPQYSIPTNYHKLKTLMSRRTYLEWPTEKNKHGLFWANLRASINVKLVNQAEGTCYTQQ
Description: as §1, §2, §3

TLR2 = biological target: T3, TLR2 (Mus musculus, UniProt Q9QUN7); assay: TLR multiplex sensor, EIS film resistance before/after exposure (Example 5), TLR2 sensor; assay type: binding; conditions: exposure 20 minutes
T3 sequence (Q9QUN7 25-587): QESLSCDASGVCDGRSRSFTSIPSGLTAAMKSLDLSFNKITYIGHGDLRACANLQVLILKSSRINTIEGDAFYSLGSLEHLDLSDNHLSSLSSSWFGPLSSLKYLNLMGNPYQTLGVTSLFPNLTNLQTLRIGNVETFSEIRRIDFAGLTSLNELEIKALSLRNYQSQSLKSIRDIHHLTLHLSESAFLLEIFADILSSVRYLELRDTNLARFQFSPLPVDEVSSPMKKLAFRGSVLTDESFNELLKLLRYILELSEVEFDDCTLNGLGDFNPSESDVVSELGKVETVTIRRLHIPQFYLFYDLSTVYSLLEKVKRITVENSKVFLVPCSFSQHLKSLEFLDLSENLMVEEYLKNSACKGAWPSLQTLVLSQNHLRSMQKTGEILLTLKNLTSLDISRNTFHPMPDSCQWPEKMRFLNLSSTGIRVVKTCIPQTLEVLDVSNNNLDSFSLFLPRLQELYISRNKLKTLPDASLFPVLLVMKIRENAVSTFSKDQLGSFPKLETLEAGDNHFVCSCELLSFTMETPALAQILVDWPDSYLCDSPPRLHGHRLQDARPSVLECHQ
Description: as §1, §2, §3

[1] = test system: Toll-like receptor expressing cells; conditions: cited from earlier work

Pam3CSK4
delta Rct % (TLR4): limited responses
electrochemical response (selectivity test) (rmTLR4/MD-2): slight signal variations
delta Rct % (TLR1): 20%
delta Rct % (TLR2): 35%
detection (lowest level previously reported) [1]: 2 µg/mL
